Experimental data taken from patent US6762188B1, “Pharmaceutically active benzoquinazoline compounds” (SmithKline Beecham Corporation, priority 1990, dated 2004).
Like-named read-outs stand apart in the source and are kept apart here.

Key:
[1] = molecular target: T1, Mammalian Thymidylate Synthase (Homo sapiens, UniProt P04818); test: Thymidylate synthase inhibition, tritium release assay; format: biochemical
T1 construct: made in house; host or cells: Escherichia coli

[2] = test system: SW480 human colon adenocarcinoma; test: Tumor cell culture cytotoxicity (MTT dye reduction), SW480; details: Homo sapiens
Protocol: (§1) SW480 and WiDr colon adenocarcinomas, MCF-7 breast adenocarcinoma, A427 lung carcinoma and MOLT-4 T-cell leukemia were used for the primary screening of compounds. […] MCF-7, A427 and SW480 were grown in the above medium further supplemented with sodium pyruvate.
(§2) Cells are seeded into 96-well plates using a Perkin-Elmer Pro/pette. SW480 and A427 were seeded at 8,000 cells per well, MCF-7 at 10,000, Widr at 7500, and MOLT-4 at 12,500 cells per well, all in 150 µl of medium. Prior to the addition of drugs, cultures were incubated for 24 hrs at 37°. Compounds were added at 2×concentration in 150 l of medium and each concentration was assayed in triplicate. If DMSO or ethanol were used to solubilize compounds, appropriate controls were run if the concentration exceeded 0.01%. Cultures were incubated for 72 hours (96 hours for SW480 and MCF-7) in a 37° humidified incubator at 5% CO2. Inhibition of cell growth was measured using the MTT dye reduction assay.
(§3) Cell dilutions for a standard curve were prepared from a 72 hour log-phase culture. Serial dilutions were seeded in triplicate in 96-well plates and incubated at 37 degrees for one hour. MTT (3-(4,5-dimethylthiazol-2-yl)-2,5-diphenyltetrazolium bromide) was dissolved in PBS at 5 mg/ml and sonicated for 30 seconds. Using the Perkin Elmer Pro/pette, 200 μl of medium was removed and 100 μl of MTT added to the wells of the standard curve and test plates. Suspension cultures were spun for 5 min at 1000 rpm before removing medium from the wells. Plates were incubated for 1 hour at 370 on a platform shaker. Following this incubation 100 ml of medium was removed from the wells and 100 μl of DMSO added to each well. The plates were sonicated for approximately 10 seconds to solubilize the precipitated formazan dye. The absorbance of each well was measured using a Titertek Multiscan MC microtiter plate reader at 570 nm with a reference wavelength of 750 nm. Data was collected using a Mariachi Seed-2 and stored and analyzed using an IBM-AT and Lotus 1-2-3 software.

[3] = Cell culture cytotoxicity, L cells; format: cell-based; details: mouse, L fibroblast cell line; Table B, fully aromatic 3-amino derivatives; read-out: Tumor Cell Culture Cytotoxicity IC50 Other (L)
Protocol: as §2, §3

[4] = Cell culture cytotoxicity, D98; format: cell-based; details: human, D98 bone marrow cell line; Table B, fully aromatic 3-amino derivatives; read-out: Tumor Cell Culture Cytotoxicity IC50 Other (D98)
Protocol: as §2, §3

[5] = test system: MCF-7 human breast adenocarcinoma; test: Tumor cell culture cytotoxicity (MTT dye reduction), MCF-7; format: cell-based
Protocol: as §1, §2, §3

[6] = SW480, read-out: Tumor Cell Culture Cytotoxicity IC50 SW480, Table D, 5,6-dihydro 3-methyl derivatives
[7] = SW480, read-out: Tumor Cell Culture Cytotoxicity IC50 SW480, Table B, fully aromatic 3-amino derivatives
[8] = MCF7, Table F, fully aromatic p-aminobenzoylglutamates, read-out: Cell Culture Cytotoxicity CCCT MCF-7
[9] = SW480, read-out: Cell Culture Cytotoxicity CCCT SW-480, Table F, fully aromatic p-aminobenzoylglutamates

T1 sequence (P04818 whole entry): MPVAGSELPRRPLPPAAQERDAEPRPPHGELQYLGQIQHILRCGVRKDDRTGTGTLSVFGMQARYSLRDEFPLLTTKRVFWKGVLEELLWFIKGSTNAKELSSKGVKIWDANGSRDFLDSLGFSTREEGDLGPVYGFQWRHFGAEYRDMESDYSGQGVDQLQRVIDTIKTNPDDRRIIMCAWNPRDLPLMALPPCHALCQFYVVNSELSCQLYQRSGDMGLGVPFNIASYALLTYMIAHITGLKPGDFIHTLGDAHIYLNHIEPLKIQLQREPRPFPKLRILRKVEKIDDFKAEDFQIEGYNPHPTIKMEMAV

| SMILES | IC50 [1] [µM] | melting point [°C] | IC50 [5, 8] [µM] | IC50 [2, 9] [µM] | further results |
| --- | --- | --- | --- | --- | --- |
| Cc1nc2c(c(=O)[nH]1)-c1cc(S(N)(=O)=O)ccc1CC2 [1,2,5,6-Tetrahydro-3-methyl-1-oxobenzo(f)quinazoline-9-sulfonamide] | 1 to 300 | > 240 | – | – | – |
| Cc1nc2c(c(=O)[nH]1)-c1cc(S(=O)(=O)Nc3ccc([N+](=O)[O-])cc3)ccc1CC2 [1,2,5,6-Tetrahydro-3-methyl-4′-nitro-1-oxobenzo(f)quinazoline-9-sulfonanilide] | – | > 240 | – | – | IC50 [2, 6]: 30 µM |
| Nc1nc2ccc3c(Br)cccc3c2c(=O)[nH]1 [3-Amino-7-bromobenzo(f)quinazolin-1(2H)-one] | 1 to 300 | – | – | – | IC50 at 72 h [3]: 28 µM; IC50 at 72 h [4]: 56 µM; IC50 [2, 7]: 10 µM |
| Nc1nc2ccc3c(Cl)cccc3c2c(=O)[nH]1 [3-Amino-7-chlorobenzo(f)quinazolin-1(2H)-one] | 1 to 300 | – | – | – | IC50 at 72 h [3]: 46 µM; IC50 at 72 h [4]: 60 µM; IC50 [2, 7]: 25 µM |
| Cc1cccc2c1ccc1nc(N)[nH]c(=O)c12 [3-Amino-7-methylbenzo(f)quinazolin-1(2H)-one] | 1 to 300 | – | – | – | IC50 at 72 h [3]: 32 µM; IC50 at 72 h [4]: 53 µM; IC50 [2, 7]: 35 µM |
| Nc1nc2ccc3c([N+](=O)[O-])c(F)ccc3c2c(=O)[nH]1 [3-Amino-8-fluoro-7-nitrobenzo(f)quinazolin-1(2H)-one] | 1 to 300 | – | – | – | IC50 at 72 h [3]: 14 µM; IC50 at 72 h [4]: 20 µM; IC50 [2, 7]: 30 µM |
| CC(=O)c1ccc(NCc2ccc3ccc4nc(N)[nH]c(=O)c4c3c2)cc1 [3-Amino-9-((4-acetylanilino)methyl)benzo(f)quinazolin-1(2H)-one] | < 1 | – | – | – | IC50 ([5]; MCF7, Table B, fully aromatic 3-amino derivatives, read-out: Tumor Cell Culture Cytotoxicity IC50 Other (MCF-7)): 0.03 µM; IC50 [2, 7]: 0.045 µM |
| Cc1nc2c(c(=O)[nH]1)-c1cc(S(=O)(=O)Nc3ccc(C(N)=O)cc3)ccc1CC2 [4-((1,2,5,6-Tetrahydro-3-methyl-1-oxobenzo(f)quinazolin-9-yl)sulfonamido)benzamide] | – | 190 | – | – | IC50 [2, 6]: 80 µM |
| CC(=O)c1ccc(NS(=O)(=O)c2ccc3c(c2)-c2c(nc(C)[nH]c2=O)CC3)cc1 [4′-Acetyl-1,2,5,6-tetrahydro-3-methyl-1-oxobenzo(f)quinazoline-9-sulfonanilide] | – | > 240 | – | – | IC50 [2, 6]: 8 µM |
| Cc1nc2ccc3ccc(CNc4ccc5c(c4)CN([C@@H](CCC(=O)O)C(=O)O)C5=O)cc3c2c(=O)[nH]1 [(S)-2-(5-(((1,2-Dihydro-3-methyl-1-oxobenzo(f)quinazolin-9-yl)methyl)amino)-1-oxo-2-isoindolinyl)glutaric acid] | – | – | 0.0002 | 0.0008 | – |
| CCCCCCCCCCCCOC(=O)CCC(=O)c1ccc(NCc2ccc3ccc4nc(C)[nH]c(=O)c4c3c2)cc1 [Dodecyl 4-(4-(((1,2-dihydro-3-methyl-1-oxobenzo[f]quinazolin-9-yl)methyl)amino)phenyl)-4-oxobutyrate] | – | 213 to 214 | – | – | IC50 ([2]; SW480, read-out: Tumor Cell Culture Cytotoxicity IC50 SW480, Table E, fully aromatic 3-methyl derivatives): 0.4 µM |
| CCN(CC)S(=O)(=O)c1ccc2ccc3nc(N)[nH]c(=O)c3c2c1 [Example 9-SO2NEt2, 3-Amino-N,N-diethyl-1,2-dihydro-1-oxobenzo[f]quinazoline-9-sulfonamide] | – | > 250 | – | – | IC50 [2, 7]: 15 µM; IC50 ([2]; SW480, read-out: Tumor Cell Culture Cytotoxicity IC50 SW480, Table C, 5,6-dihydro 3-amino derivatives): 30 µM |
| CC(=O)c1ccc(NCc2ccc3ccc4nc(C)[nH]c(=O)c4c3c2)cc1 [Example 35, 9-((4-Acetylanilino)methyl)-3-methylbenzo[f]quinazolin-1(2H)-one] | – | > 235 | – | – | – |
| Nc1nc2ccc3ccc(CNc4ccc(F)cc4)cc3c2c(=O)[nH]1 [Example 38, 3-Amino-9-((4-fluoroanilino)methyl)benzo[f]quinazolin-1(2H)-one] | – | > 230 | – | – | – |
| CCN(CC)S(=O)(=O)c1ccc2c(c1)-c1c(nc(C)[nH]c1=O)CC2 [N,N-Diethyl-1,2,5,6-tetrahydro-3-methyl-1-oxobenzo(f)quinazoline-9-sulfonamide] | 1 to 300 | 249 to 251 | – | – | – |
| Cc1nc2ccc3c(S(=O)(=O)Nc4ccc(C(=O)N[C@@H](CCC(=O)O)C(=O)O)cc4)cccc3c2c(=O)[nH]1 [N-(4-((1,2,-Dihydro-3-methyl-1-oxobenzo(f)quinazolin-7-yl)sulfonamido)benzoyl)-L-glutamic acid] | – | – | 50 | – | – |
| Cc1nc2ccc3ccc(COc4ccc(C(=O)N[C@@H](CCC(=O)O)C(=O)O)cc4)cc3c2c(=O)[nH]1 [N-(4-((1,2-Dihydro-3-methyl-1-oxobenzo(f)quinazolin-9-yl)methoxy)benzoyl)-L-glutamic acid] | – | – | 7 | 70 | – |
| Cc1nc2ccc3ccc(CN(C)c4ccc(C(=O)N[C@@H](CCC(=O)O)C(=O)O)cc4)cc3c2c(=O)[nH]1 [N-(4-((1,2-Dihydro-3-methyl-1-oxobenzo(f)quinazolin-9-yl)methyl)methylamino)benzoyl)-L-glutamic acid] | – | – | 0.018 | 1.5 | – |
| Nc1nc2c(c(=O)[nH]1)-c1cc(S(=O)(=O)Nc3ccc(C(=O)N[C@@H](CCC(=O)O)C(=O)O)cc3)ccc1CC2 [N-(4-((3-Amino-1,2,5,6-tetrahydro-1-oxobenzo(f)quinazolin-9-yl)-sulfonamido)benzoyl)-L-glutamic acid] | – | – | – | – | IC50 ([5]; MCF7, Table G, dihydrobenzoquinazoline p-aminobenzoylglutamates, read-out: Cell Culture Cytotoxicity CCCT MCF-7): 0.65 µM; IC50 ([2]; SW480, read-out: Cell Culture Cytotoxicity CCCT SW-480, Table G, dihydrobenzoquinazoline p-aminobenzoylglutamates): 7.9 µM |
| Nc1nc2ccc3cc(S(=O)(=O)Nc4ccc(C(=O)N[C@@H](CCC(=O)O)C(=O)O)cc4)c(Br)cc3c2c(=O)[nH]1 [N-(4-((3-Amino-9-bromo-1,2-dihydro-1-oxobenzo(f)quinazolin-8-yl)sulfonamido)benzoyl)-L-glutamic acid] | – | 238 to 242 | > 50 | > 50 | – |
| Cc1nc2ccc3ccc(CNc4ccc(C(=O)N[C@@H](CCC(=O)O)C(=O)O)c(F)c4)cc3c2c(=O)[nH]1 [N-(4-(((1,2-Dihydro-3-methyl-1-oxobenzo(f)quinazolin-9-yl)methyl)amino)-2-fluorobenzoyl)-L-glutamic acid] | – | – | 0.0007 | 0.02 | – |
| Cc1nc2ccc3ccc(CNc4ccc(C(=O)N[C@@H](CCC(=O)O)C(=O)O)cc4)cc3c2c(=O)[nH]1 [N-(4-(((1,2-Dihydro-3-methyl-1-oxobenzo(f)quinazolin-9-yl)methyl)amino)benzoyl)-L-glutamic acid] | – | – | 0.0075 | 0.35 | – |
| Nc1nc2ccc3ccc(CNc4ccc(C(=O)N[C@@H](CCC(=O)O)C(=O)O)cc4)cc3c2c(=O)[nH]1 [N-(4-(((3-Amino-1,2-dihydro-1-oxobenzo(f)quinazolin-9-yl)methyl)amino)benzoyl)-L-glutamic acid] | – | – | 0.025 | 0.6 | – |
